{"source": "patent US12698474B2", "about": "“B-cell cultivation method” (priority 2017, dated 2026)", "tested_on": "(single deposited) (rabbit) B-cells", "assay": "Co-cultivation of single deposited B-cells with EL-4 B5 feeder cells, quantification of IgG in supernatant by ELISA", "type": "cell-based", "method": "Generally, the 96-well multi well plate in which the co-cultivation was performed was centrifuged after seven days of co-cultivation at 300×g for 5 min. 150 μl supernatant was removed and diluted at a ratio of 2:1 with PBS in a second 96-well multi well plate. The antibody was used at a concentration of 50 ng/ml. If the OD was or exceeded 1 after an incubation time of 5 min. a dilution series of from 0.8 to 108 ng/ml IgG was tested.\nSpecifically, a mixture of 0.5 μg/ml of biotinylated mouse anti-rabbit IgG antibody (Sigma-Aldrich) and 0.35 μg/ml anti-rabbit IgG HRP conjugate (Sigma-Aldrich) was transferred to 384 well streptavidin coated microtiter plates (MicroCoat Biotechnologie GmbH). Dilutions of B-cell supernatants in PBS supplemented with 0.5% BSA and 0.05% Tween®-20 were added and incubated for 90 min at RT. After repeated washing (6×) with PBST (phosphate buffered saline with 0.2% Tween®-20) buffer the plates were developed with BM Blue® HRP substrate solution and color formation was measured by absorbance at 370 nm. A commercial rabbit IgG (Sigma-Aldrich) was used as a calibration standard.\nSingle cell sorted B-cells were cultured in 96-well plates with 200 μl/well EL-4 B5 medium with Pansorbin Cells (SAC) (Calbiochem (Merck), Darmstadt, Deutschland), EL-4 B5 cells (5×10^4/well) and rabbit thymocyte supernatant (TSN) or cytokine mix (CM) with PMA, respectively, for 7 days at 37° C. in an atmosphere of 5% CO2 in the incubator. B-cell culture supernatants were removed for screening and the cells harvested immediately for variable region gene cloning or frozen at −80° C. in 100 μl RLT buffer (Qiagen, Hilden, Germany).", "key": {"[1]": {"settings": "PMA alone, in the absence of cytokines and interleukins"}}, "data": [{"smiles": "CCCCCCCCCCCCCC(=O)O[C@@H]1[C@@H](C)[C@@]2(O)[C@@H](C=C(CO)C[C@]3(O)C(=O)C(C)=C[C@@H]23)[C@@H]2C(C)(C)[C@]12OC(C)=O", "note": "[PMA, (1aR,1bS,4aR,7aS,7bS,8R,9R,9aS)-9a-(acetyloxy)-4a,7b-dihydroxy-3-(hydroxymethyl)-1,1,6,8-tetramethyl-5-oxo-1a,1b,4,4a,5,7a,7b,8,9,9a-decahydro-H-cyclopropa[3,4]benzo[1,2-e]azulen-9-yl myristate]", "values": [{"measurement": "IgG+ wells [% total]", "setting": "PMA 0.002 ng/ml, 0.1×CM", "value": "+"}, {"measurement": "IgG+ wells [% total]", "setting": "PMA 0.011 ng/ml, 0.1×CM", "value": "+"}, {"measurement": "productivity IgG+ [μg/ml]", "setting": "PMA 0.011 ng/ml, 0.1×CM", "value": "+"}, {"measurement": "IgG+ wells [% total]", "setting": "PMA 0.054 ng/ml, 0.1×CM", "value": "++++"}, {"measurement": "productivity IgG+ [μg/ml]", "setting": "PMA 0.054 ng/ml, 0.1×CM", "value": "+++"}, {"measurement": "Average IgG productivity", "setting": "PMA 0.095 ng/ml, CM 1x", "value": 1.390, "unit": "µg/mL"}, {"measurement": "Number of IgG positive wells [% of total]", "setting": "PMA 0.095 ng/ml, CM 1x", "value": "38.1 % of total"}, {"measurement": "productivity IgG+ [μg/ml]", "setting": "PMA 0.127 ng/ml, 0.032×CM", "value": "+"}, {"measurement": "IgG+ wells [% total]", "setting": "PMA 0.127 ng/ml, 0.1×CM", "value": "++"}, {"measurement": "productivity IgG+ [μg/ml]", "setting": "PMA 0.127 ng/ml, 0.1×CM", "value": "++++"}, {"measurement": "IgG+ wells [% total]", "setting": "PMA 0.225 ng/ml, 0.1×CM", "value": "+++++"}, {"measurement": "productivity IgG+ [μg/ml]", "setting": "PMA 0.225 ng/ml, 0.1×CM", "value": "+++++"}, {"measurement": "IgG+ wells [% total]", "setting": "PMA 0.3 ng/ml, 0.032×CM", "value": "++++"}, {"measurement": "productivity IgG+ [μg/ml]", "setting": "PMA 0.3 ng/ml, 0.032×CM", "value": "+++"}, {"measurement": "IgG+ wells [% total]", "setting": "PMA 0.3 ng/ml, 0.1×CM", "value": "+++++"}, {"measurement": "productivity IgG+ [μg/ml]", "setting": "PMA 0.3 ng/ml, 0.1×CM", "value": "+++++"}, {"measurement": "Average IgG productivity", "setting": "PMA 0.3 ng/ml, CM 0.01x", "value": 1.931, "unit": "µg/mL"}, {"measurement": "Number of IgG positive wells [% of total]", "setting": "PMA 0.3 ng/ml, CM 0.01x", "value": "69.0 % of total"}, {"measurement": "Average IgG productivity", "setting": "PMA 0.3 ng/ml, CM 0.032x", "value": 3.476, "unit": "µg/mL"}, {"measurement": "Number of IgG positive wells [% of total]", "setting": "PMA 0.3 ng/ml, CM 0.032x", "value": "70.2 % of total"}, {"measurement": "Average IgG productivity", "setting": "PMA 0.3 ng/ml, CM 0.1x", "value": 4.450, "unit": "µg/mL"}, {"measurement": "Number of IgG positive wells [% of total]", "setting": "PMA 0.3 ng/ml, CM 0.1x", "value": "67.9 % of total"}, {"measurement": "Average IgG productivity", "setting": "PMA 0.3 ng/ml, CM 0.32x", "value": 2.662, "unit": "µg/mL"}, {"measurement": "Number of IgG positive wells [% of total]", "setting": "PMA 0.3 ng/ml, CM 0.32x", "value": "57.1 % of total"}, {"measurement": "Average IgG productivity", "setting": "PMA 0.3 ng/ml, CM 1x", "value": 0.720, "unit": "µg/mL"}, {"measurement": "Number of IgG positive wells [% of total]", "setting": "PMA 0.3 ng/ml, CM 1x", "value": "17.9 % of total"}, {"measurement": "IgG+ wells [% total]", "setting": "PMA 0.534 ng/ml, 0.032×CM", "value": "++"}, {"measurement": "productivity IgG+ [μg/ml]", "setting": "PMA 0.534 ng/ml, 0.032×CM", "value": "+++"}, {"measurement": "IgG+ wells [% total]", "setting": "PMA 0.534 ng/ml, 0.1×CM", "value": "+++++"}, {"measurement": "productivity IgG+ [μg/ml]", "setting": "PMA 0.534 ng/ml, 0.1×CM", "value": "+++"}, {"measurement": "IgG+ wells [% total]", "setting": "PMA 0.712 ng/ml, 0.032×CM", "value": "++"}, {"measurement": "productivity IgG+ [μg/ml]", "setting": "PMA 0.712 ng/ml, 0.032×CM", "value": "+++"}, {"measurement": "IgG+ wells [% total]", "setting": "PMA 0.712 ng/ml, 0.1×CM", "value": "+++"}, {"measurement": "productivity IgG+ [μg/ml]", "setting": "PMA 0.712 ng/ml, 0.1×CM", "value": "++"}, {"measurement": "IgG+ wells [% total]", "setting": "PMA 0.949 ng/ml, 0.032×CM", "value": "++++"}, {"measurement": "productivity IgG+ [μg/ml]", "setting": "PMA 0.949 ng/ml, 0.032×CM", "value": "+++++"}, {"measurement": "Average IgG productivity", "setting": "PMA 0.95 ng/ml, CM 0x", "value": 1.650, "unit": "µg/mL"}, {"measurement": "Number of IgG positive wells [% of total]", "setting": "PMA 0.95 ng/ml, CM 0x", "value": "28.6 % of total"}, {"measurement": "Average IgG productivity", "setting": "PMA 0.95 ng/ml, CM 0.01x", "value": 4.235, "unit": "µg/mL"}, {"measurement": "Number of IgG positive wells [% of total]", "setting": "PMA 0.95 ng/ml, CM 0.01x", "value": "69.0 % of total"}, {"measurement": "Average IgG productivity", "setting": "PMA 0.95 ng/ml, CM 0.032x", "value": 5.340, "unit": "µg/mL"}, {"measurement": "Number of IgG positive wells [% of total]", "setting": "PMA 0.95 ng/ml, CM 0.032x", "value": "67.9 % of total"}, {"measurement": "Average IgG productivity", "setting": "PMA 0.95 ng/ml, CM 0.1x", "value": 1.623, "unit": "µg/mL"}, {"measurement": "Number of IgG positive wells [% of total]", "setting": "PMA 0.95 ng/ml, CM 0.1x", "value": "50.0 % of total"}, {"measurement": "Average IgG productivity", "setting": "PMA 0.95 ng/ml, CM 0.32x", "value": 0.134, "unit": "µg/mL"}, {"measurement": "Number of IgG positive wells [% of total]", "setting": "PMA 0.95 ng/ml, CM 0.32x", "value": "23.8 % of total"}, {"measurement": "Average IgG productivity", "setting": "PMA 0.95 ng/ml, CM 1x", "value": 0.100, "unit": "µg/mL"}, {"measurement": "Number of IgG positive wells [% of total]", "setting": "PMA 0.95 ng/ml, CM 1x", "value": "8.3 % of total"}, {"measurement": "IgG+ wells [% total]", "setting": "PMA 0.95 ng/ml, without CM", "value": "+"}, {"measurement": "productivity IgG+ [μg/ml]", "setting": "PMA 0.95 ng/ml, without CM", "value": "+"}, {"measurement": "IgG+ wells [% total]", "setting": "PMA 1.266 ng/ml, 0.032×CM", "value": "+++"}, {"measurement": "productivity IgG+ [μg/ml]", "setting": "PMA 1.266 ng/ml, 0.032×CM", "value": "+++++"}, {"measurement": "IgG+ wells [% total]", "setting": "PMA 1.688 ng/ml, 0.032×CM", "value": "+++++"}, {"measurement": "productivity IgG+ [μg/ml]", "setting": "PMA 1.688 ng/ml, 0.032×CM", "value": "+++++"}, {"measurement": "IgG+ wells [% total]", "setting": "PMA 1.688 ng/ml, without CM", "value": "++"}, {"measurement": "productivity IgG+ [μg/ml]", "setting": "PMA 1.688 ng/ml, without CM", "value": "+++"}, {"measurement": "IgG+ wells [% total]", "setting": "PMA 2.25 ng/ml, 0.032×CM", "value": "++++"}, {"measurement": "productivity IgG+ [μg/ml]", "setting": "PMA 2.25 ng/ml, 0.032×CM", "value": "++++"}, {"measurement": "IgG+ wells [% total]", "setting": "PMA 2.251 ng/ml, without CM", "value": "+++++"}, {"measurement": "productivity IgG+ [μg/ml]", "setting": "PMA 2.251 ng/ml, without CM", "value": "+++++"}, {"measurement": "Average IgG productivity", "setting": "PMA 3 ng/ml, CM 0.01x", "value": 3.893, "unit": "µg/mL"}, {"measurement": "Number of IgG positive wells [% of total]", "setting": "PMA 3 ng/ml, CM 0.01x", "value": "69.0 % of total"}, {"measurement": "Average IgG productivity", "setting": "PMA 3 ng/ml, CM 0.032x", "value": 3.480, "unit": "µg/mL"}, {"measurement": "Number of IgG positive wells [% of total]", "setting": "PMA 3 ng/ml, CM 0.032x", "value": "72.6 % of total"}, {"measurement": "Average IgG productivity", "setting": "PMA 3 ng/ml, CM 0.1x", "value": 0.363, "unit": "µg/mL"}, {"measurement": "Number of IgG positive wells [% of total]", "setting": "PMA 3 ng/ml, CM 0.1x", "value": "35.7 % of total"}, {"measurement": "Average IgG productivity", "setting": "PMA 3 ng/ml, CM 0.32x", "value": 0.125, "unit": "µg/mL"}, {"measurement": "Number of IgG positive wells [% of total]", "setting": "PMA 3 ng/ml, CM 0.32x", "value": "13.1 % of total"}, {"measurement": "Average IgG productivity", "setting": "PMA 3 ng/ml, CM 1x", "value": 0.351, "unit": "µg/mL"}, {"measurement": "Number of IgG positive wells [% of total]", "setting": "PMA 3 ng/ml, CM 1x", "value": "13.1 % of total"}, {"measurement": "IgG+ wells [% total]", "setting": "PMA 3.999 ng/ml, without CM", "value": "+++"}, {"measurement": "productivity IgG+ [μg/ml]", "setting": "PMA 3.999 ng/ml, without CM", "value": "+++"}, {"measurement": "IgG+ wells [% total]", "setting": "PMA 5.331 ng/ml, without CM", "value": "++++"}, {"measurement": "productivity IgG+ [μg/ml]", "setting": "PMA 5.331 ng/ml, without CM", "value": "+++++"}, {"measurement": "IgG+ wells [% total]", "setting": "PMA 7.106 ng/ml, without CM", "value": "+++++"}, {"measurement": "productivity IgG+ [μg/ml]", "setting": "PMA 7.106 ng/ml, without CM", "value": "++"}, {"measurement": "numbers of IgG positive wells", "setting": "[1]", "value": "comparable"}, {"measurement": "productivity", "setting": "[1]", "value": "increased"}]}]}
